Test results as given in BindingDB's records for PubMed 7523657 (Eli Lilly, 1994).

How the values were obtained:
Histamine H1 receptor = Histamine H1 receptor (Rattus norvegicus, UniProt P31390)
[1] = biological target: 5-hydroxytryptamine receptor 1D (Rattus norvegicus, UniProt P28565)
[2] = biological target: Gamma-aminobutyric acid receptor subunit alpha-1 (Rattus norvegicus, UniProt P62813)
[3] = biological target: T1, 5-hydroxytryptamine receptor 2C (Rattus norvegicus, UniProt P08909)
T1 sequence (P08909 whole entry): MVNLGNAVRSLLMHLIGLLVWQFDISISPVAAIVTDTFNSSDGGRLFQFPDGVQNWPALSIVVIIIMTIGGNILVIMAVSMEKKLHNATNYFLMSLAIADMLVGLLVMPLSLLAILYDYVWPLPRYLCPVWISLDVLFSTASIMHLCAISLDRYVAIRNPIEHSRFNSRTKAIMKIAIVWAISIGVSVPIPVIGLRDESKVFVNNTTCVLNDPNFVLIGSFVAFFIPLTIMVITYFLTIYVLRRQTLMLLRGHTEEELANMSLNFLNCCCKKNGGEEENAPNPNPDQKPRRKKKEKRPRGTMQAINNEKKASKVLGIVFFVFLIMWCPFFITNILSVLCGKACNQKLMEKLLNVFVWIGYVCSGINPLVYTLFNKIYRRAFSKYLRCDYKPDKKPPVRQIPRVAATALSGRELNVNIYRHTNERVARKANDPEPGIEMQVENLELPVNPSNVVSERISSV

[4] = biological target: T2, 5-hydroxytryptamine receptor 3A (Rattus norvegicus, UniProt P35563)
T2 sequence (P35563 whole entry): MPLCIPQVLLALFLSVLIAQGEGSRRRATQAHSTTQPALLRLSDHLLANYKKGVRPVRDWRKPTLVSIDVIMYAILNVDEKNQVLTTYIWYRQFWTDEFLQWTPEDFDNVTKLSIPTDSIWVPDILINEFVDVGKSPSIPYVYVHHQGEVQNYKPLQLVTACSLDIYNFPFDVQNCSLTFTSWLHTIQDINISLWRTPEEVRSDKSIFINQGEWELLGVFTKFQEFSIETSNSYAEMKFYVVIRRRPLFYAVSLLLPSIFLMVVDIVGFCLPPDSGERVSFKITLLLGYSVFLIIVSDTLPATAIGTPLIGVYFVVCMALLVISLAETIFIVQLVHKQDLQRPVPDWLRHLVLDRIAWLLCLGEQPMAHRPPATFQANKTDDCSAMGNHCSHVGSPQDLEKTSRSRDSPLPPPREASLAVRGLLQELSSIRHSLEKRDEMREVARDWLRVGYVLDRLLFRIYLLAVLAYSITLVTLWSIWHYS

[5] = biological target: 5-hydroxytryptamine receptor 2A (Rattus norvegicus, UniProt P14842)
[6] = biological target: Beta-2 adrenergic receptor (Rattus norvegicus, UniProt P10608)
D(2) dopamine receptor = D(2) dopamine receptor (Rattus norvegicus, UniProt P61169)
[7] = biological target: T3, Muscarinic acetylcholine receptor M2 (Rattus norvegicus, UniProt P10980)
T3 sequence (P10980 whole entry): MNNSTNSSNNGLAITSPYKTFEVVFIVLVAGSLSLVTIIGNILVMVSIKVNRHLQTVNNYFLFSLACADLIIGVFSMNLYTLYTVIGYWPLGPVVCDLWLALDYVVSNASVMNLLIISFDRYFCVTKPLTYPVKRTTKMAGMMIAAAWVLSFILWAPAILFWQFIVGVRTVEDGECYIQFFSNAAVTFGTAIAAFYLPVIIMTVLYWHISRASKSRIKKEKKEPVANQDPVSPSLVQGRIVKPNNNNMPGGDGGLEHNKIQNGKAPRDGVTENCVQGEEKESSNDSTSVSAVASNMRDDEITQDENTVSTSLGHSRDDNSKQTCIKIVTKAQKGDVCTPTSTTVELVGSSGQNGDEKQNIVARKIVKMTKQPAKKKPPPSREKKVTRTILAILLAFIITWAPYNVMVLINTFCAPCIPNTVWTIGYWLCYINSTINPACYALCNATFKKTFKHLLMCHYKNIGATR

[8] = biological target: T4, Alpha-1A adrenergic receptor (Rattus norvegicus, UniProt P43140)
T4 sequence (P43140 whole entry): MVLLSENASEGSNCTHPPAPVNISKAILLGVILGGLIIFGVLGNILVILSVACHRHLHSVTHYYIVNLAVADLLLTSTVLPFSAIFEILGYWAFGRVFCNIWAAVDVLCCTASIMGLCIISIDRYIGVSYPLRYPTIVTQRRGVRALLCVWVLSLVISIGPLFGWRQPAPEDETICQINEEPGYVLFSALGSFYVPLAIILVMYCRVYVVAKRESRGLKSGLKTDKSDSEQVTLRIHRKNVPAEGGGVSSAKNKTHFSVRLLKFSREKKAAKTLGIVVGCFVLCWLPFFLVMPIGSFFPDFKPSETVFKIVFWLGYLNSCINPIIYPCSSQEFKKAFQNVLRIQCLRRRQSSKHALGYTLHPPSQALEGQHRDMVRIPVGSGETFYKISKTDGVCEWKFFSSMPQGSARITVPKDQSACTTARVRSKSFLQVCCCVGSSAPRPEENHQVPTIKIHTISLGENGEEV

D(1A) dopamine receptor = D(1A) dopamine receptor (Rattus norvegicus, UniProt P18901)
[9] = biological target: 5-hydroxytryptamine receptor 1B (Rattus norvegicus, UniProt P28564)
[10] = biological target: T5, Alpha-2C adrenergic receptor (Rattus norvegicus, UniProt P22086)
T5 sequence (P22086 whole entry): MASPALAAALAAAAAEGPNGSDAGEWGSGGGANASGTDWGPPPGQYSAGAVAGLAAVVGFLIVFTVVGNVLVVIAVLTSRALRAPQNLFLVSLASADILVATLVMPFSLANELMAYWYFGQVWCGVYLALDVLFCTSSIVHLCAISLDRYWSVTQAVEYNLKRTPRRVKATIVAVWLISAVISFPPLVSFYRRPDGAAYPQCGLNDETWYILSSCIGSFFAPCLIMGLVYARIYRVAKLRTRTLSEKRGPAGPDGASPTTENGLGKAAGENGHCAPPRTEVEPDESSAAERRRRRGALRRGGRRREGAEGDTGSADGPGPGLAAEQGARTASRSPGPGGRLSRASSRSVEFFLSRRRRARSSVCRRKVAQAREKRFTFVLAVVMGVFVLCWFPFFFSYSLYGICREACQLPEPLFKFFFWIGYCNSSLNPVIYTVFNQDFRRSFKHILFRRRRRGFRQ

Chain of Gamma-aminobutyric acid receptor subunit alpha-1 (P62813 whole entry): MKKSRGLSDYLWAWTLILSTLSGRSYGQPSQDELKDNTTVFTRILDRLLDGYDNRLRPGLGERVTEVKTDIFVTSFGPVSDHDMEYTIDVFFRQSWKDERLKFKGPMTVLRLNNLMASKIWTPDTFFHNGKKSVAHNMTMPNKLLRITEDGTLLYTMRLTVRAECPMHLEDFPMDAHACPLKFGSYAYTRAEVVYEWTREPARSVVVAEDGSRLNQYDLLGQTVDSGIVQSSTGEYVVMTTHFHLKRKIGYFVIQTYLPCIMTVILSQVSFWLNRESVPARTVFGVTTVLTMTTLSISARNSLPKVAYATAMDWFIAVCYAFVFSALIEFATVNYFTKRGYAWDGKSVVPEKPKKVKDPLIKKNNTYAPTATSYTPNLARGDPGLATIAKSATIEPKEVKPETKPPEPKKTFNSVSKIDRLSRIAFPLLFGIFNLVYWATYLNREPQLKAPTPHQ
Chain of 5-hydroxytryptamine receptor 2A (P14842 whole entry): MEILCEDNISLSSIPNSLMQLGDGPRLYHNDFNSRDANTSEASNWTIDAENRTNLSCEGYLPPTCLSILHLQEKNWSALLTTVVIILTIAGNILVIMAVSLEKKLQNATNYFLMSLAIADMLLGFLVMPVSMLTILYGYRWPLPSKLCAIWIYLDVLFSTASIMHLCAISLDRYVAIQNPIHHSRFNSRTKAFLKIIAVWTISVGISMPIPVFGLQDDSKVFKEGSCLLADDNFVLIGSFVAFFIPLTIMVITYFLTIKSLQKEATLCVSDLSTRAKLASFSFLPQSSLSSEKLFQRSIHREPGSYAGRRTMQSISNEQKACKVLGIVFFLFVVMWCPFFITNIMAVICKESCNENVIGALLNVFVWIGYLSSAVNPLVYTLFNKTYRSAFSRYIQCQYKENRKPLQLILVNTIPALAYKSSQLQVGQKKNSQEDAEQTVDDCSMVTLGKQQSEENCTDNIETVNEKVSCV
Chain of 5-hydroxytryptamine receptor 1B (P28564 whole entry): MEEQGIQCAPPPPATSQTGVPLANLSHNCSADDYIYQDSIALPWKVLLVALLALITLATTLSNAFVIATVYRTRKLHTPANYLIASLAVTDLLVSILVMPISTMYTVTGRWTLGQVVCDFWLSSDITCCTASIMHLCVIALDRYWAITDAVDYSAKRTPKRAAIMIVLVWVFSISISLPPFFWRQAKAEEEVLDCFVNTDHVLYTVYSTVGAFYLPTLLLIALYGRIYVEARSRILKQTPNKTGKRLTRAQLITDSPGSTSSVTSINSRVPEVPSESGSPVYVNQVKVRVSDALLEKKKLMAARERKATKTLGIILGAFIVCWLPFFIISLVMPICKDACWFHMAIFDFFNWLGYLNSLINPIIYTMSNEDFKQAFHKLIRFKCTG
Chain of 5-hydroxytryptamine receptor 1D (P28565 whole entry): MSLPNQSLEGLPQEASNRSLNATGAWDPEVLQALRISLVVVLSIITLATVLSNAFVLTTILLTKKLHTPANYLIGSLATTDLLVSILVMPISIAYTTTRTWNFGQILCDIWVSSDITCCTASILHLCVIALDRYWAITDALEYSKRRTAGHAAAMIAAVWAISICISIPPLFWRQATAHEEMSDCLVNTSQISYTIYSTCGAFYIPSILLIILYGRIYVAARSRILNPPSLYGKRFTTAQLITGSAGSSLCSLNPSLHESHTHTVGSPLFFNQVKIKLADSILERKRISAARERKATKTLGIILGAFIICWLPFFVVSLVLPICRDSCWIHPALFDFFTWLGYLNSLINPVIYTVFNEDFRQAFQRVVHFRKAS
Chain of D(2) dopamine receptor (P61169 whole entry): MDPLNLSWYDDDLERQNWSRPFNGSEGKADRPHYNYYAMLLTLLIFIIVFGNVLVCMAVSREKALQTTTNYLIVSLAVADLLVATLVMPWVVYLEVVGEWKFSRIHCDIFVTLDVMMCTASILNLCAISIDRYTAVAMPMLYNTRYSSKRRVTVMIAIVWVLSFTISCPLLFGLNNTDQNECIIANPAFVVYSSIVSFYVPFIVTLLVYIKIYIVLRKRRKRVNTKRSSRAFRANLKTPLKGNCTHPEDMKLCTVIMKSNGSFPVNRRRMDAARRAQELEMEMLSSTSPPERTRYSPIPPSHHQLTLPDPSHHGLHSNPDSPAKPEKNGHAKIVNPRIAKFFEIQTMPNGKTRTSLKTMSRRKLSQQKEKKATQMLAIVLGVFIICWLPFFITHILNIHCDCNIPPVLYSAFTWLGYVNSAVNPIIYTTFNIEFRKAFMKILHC
Chain of Histamine H1 receptor (P31390 whole entry): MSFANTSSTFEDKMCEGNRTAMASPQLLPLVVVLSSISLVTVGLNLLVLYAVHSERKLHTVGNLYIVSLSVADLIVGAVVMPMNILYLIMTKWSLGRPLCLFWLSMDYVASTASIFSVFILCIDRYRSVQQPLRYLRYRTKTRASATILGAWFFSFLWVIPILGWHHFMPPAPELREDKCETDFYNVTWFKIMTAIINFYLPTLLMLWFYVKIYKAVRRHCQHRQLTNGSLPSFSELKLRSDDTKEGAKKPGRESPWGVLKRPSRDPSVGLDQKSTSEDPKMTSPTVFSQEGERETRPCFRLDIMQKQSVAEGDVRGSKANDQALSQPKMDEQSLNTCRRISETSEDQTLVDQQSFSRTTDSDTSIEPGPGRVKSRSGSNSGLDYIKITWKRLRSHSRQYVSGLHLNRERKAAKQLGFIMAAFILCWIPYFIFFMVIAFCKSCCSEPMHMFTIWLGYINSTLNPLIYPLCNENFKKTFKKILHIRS
Chain of Beta-2 adrenergic receptor (P10608 whole entry): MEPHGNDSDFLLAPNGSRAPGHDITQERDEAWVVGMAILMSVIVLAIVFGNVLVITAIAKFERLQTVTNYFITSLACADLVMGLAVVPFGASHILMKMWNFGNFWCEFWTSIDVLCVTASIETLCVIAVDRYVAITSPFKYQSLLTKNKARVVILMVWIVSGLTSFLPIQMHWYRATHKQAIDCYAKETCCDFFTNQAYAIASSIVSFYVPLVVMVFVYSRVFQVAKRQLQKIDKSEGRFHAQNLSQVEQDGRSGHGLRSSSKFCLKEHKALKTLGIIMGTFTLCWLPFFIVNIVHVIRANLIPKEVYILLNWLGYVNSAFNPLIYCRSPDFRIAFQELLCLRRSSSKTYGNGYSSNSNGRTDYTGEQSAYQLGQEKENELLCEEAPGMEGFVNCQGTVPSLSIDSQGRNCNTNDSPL
Chain of D(1A) dopamine receptor (P18901 whole entry): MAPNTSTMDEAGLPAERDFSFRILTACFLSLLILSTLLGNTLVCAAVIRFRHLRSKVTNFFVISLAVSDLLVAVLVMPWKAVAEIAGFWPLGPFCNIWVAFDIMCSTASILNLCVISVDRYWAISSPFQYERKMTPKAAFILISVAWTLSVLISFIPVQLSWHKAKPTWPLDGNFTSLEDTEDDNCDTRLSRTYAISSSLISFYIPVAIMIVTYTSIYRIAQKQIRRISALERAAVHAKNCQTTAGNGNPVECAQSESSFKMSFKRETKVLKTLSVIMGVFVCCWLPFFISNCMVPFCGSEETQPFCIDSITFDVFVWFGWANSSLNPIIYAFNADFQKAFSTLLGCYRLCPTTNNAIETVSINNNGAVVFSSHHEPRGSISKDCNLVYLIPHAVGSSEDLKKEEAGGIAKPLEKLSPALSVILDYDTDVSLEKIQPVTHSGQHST

CCCN(CCC)C1Cc2c[nH]c3ccc(C(C)=O)c(c23)C1 (stereo not drawn) [LY-293384]
Ki (Histamine H1 receptor): 1000 nM
Ki [1]: 66.9 nM
Ki [2]: 1000 nM
Ki [3]: 1000 nM
Ki [4]: 1000 nM
Ki [5]: 1000 nM
Ki [6]: 1000 nM
Ki (D(2) dopamine receptor): 1000 nM
Ki [7]: 1000 nM
Ki [8]: 1000 nM
Ki (D(1A) dopamine receptor): 1000 nM
Ki [9]: 1000 nM
Ki [10]: 1000 nM
